Test: Half-life in human serum administered once daily

**Q.** Which half-life does the source give for `Nc1nc(=O)n([C@@H]2CS[C@H](CO)O2)cc1F` [EMTRICITABINE] here?
**A.** Its half-life is 10 h.

From ChEMBL document CHEMBL4385590, “A Survey of the Structures of US FDA Approved Combination Drugs” (J Med Chem, 2019)
